Like-named read-outs stand apart in the source and are kept apart here.
Assays:
Format in all cases: cell-based
[1] = tested on: K-562; test: Human tumor cell line growth assay (SRB); details: K562, Leukemia, K-562, 48 h; for CC50: read-out: LC50 (the source's name)
[2] = Human tumor cell line growth assay (SRB); details: human, NCI-H226 cells (NSCLC), NCI-H226, 48 h, read-out: LC50
[3] = tested on: NCI-H226; test: Human tumor cell line growth assay (SRB); details: Homo sapiens; NSCLC, NCI-H226, 48 h
[4] = Human tumor cell line growth assay (SRB); details: human, NCI-H322M cells (NSCLC), read-out: LC50
[5] = tested on: NCI-H322M; test: Human tumor cell line growth assay (SRB); details: Homo sapiens, NSCLC, 48 h
[6] = tested on: NCI-H460; test: Human tumor cell line growth assay (SRB); details: Homo sapiens; NSCLC, NCI-H460, 48 h
[7] = Human tumor cell line growth assay (SRB); details: human, HT29 cells (colon), HT29, 48 h, read-out: LC50
[8] = tested on: HT29; test: Human tumor cell line growth assay (SRB); details: Homo sapiens, HT-29; Colon, HT29, 48 h
[9] = Human tumor cell line growth assay (SRB); details: human, SF-268 cells (CNS), SF-268, 48 h
[10] = tested on: SF-268; test: Human tumor cell line growth assay (SRB); details: Homo sapiens; CNS, SF-268, 48 h
[11] = Human tumor cell line growth assay (SRB); details: human, SF-295 cells (CNS), SF-295, 48 h, read-out: LC50
[12] = tested on: SF-295; test: Human tumor cell line growth assay (SRB); details: Homo sapiens; CNS, SF-295, 48 h
[13] = tested on: SF-539; test: Human tumor cell line growth assay (SRB); details: Homo sapiens; CNS, SF-539, 48 h
[14] = tested on: U251; test: Human tumor cell line growth assay (SRB); details: Homo sapiens, U-251; CNS, U251, 48 h
[15] = tested on: MALME-3M; test: Human tumor cell line growth assay (SRB); details: Homo sapiens, Melanoma, 48 h
[16] = Human tumor cell line growth assay (SRB); details: human, M14 cells (melanoma), M14, 48 h, read-out: LC50
[17] = tested on: M14; test: Human tumor cell line growth assay (SRB); details: Homo sapiens; Melanoma, M14, 48 h
[18] = tested on: UACC-257; test: Human tumor cell line growth assay (SRB); details: Homo sapiens; Melanoma, UACC-257, 48 h
[19] = tested on: UACC-62; test: Human tumor cell line growth assay (SRB); details: Homo sapiens; Melanoma, UACC-62, 48 h
[20] = tested on: OVCAR-3; test: Human tumor cell line growth assay (SRB); details: Homo sapiens; Ovarian, OVCAR-3, 48 h
[21] = Human tumor cell line growth assay (SRB); details: human, OVCAR-5 cells (ovarian), OVCAR-5, 48 h, read-out: LC50
[22] = tested on: OVCAR-5; test: Human tumor cell line growth assay (SRB); details: Homo sapiens; Ovarian, OVCAR-5, 48 h
[23] = tested on: OVCAR-8; test: Human tumor cell line growth assay (SRB); details: Ovarian, OVCAR-8, 48 h
[24] = tested on: SK-OV-3; test: Human tumor cell line growth assay (SRB); details: Ovarian, SK-OV-3, 48 h; for CC50: read-out: LC50 (the source's name)
[25] = tested on: ACHN; test: Human tumor cell line growth assay (SRB); details: Renal, 48 h
[26] = tested on: UO-31; test: Human tumor cell line growth assay (SRB); details: Renal, UO-31, 48 h; for CC50: read-out: LC50 (the source's name)
[27] = tested on: PC-3; test: Human tumor cell line growth assay (SRB); details: Prostate, PC-3, 48 h
[28] = tested on: DU-145; test: Human tumor cell line growth assay (SRB); details: Prostate, DU-145, 48 h; for CC50: read-out: LC50 (the source's name)
[29] = tested on: HS 578T; test: Human tumor cell line growth assay (SRB); details: Breast, 48 h; for CC50: read-out: LC50 (the source's name)
[30] = tested on: Human tumor cell lines; test: Human tumor cell line growth assay (SRB), summary over the panel; details: overall over the panel
[31] = Human tumor cell line growth assay (SRB); details: human, NCI-H460 cells (NSCLC), NCI-H460, 48 h, read-out: LC50
[32] = Human tumor cell line growth assay (SRB); details: human, SF-539 cells (CNS), SF-539, 48 h, read-out: LC50
[33] = Human tumor cell line growth assay (SRB); details: human, U251 cells (CNS), U251, 48 h, read-out: LC50
[34] = Human tumor cell line growth assay (SRB); details: human, MALME-3M cells (melanoma), read-out: LC50
[35] = Human tumor cell line growth assay (SRB); details: human, UACC-257 cells (melanoma), UACC-257, 48 h, read-out: LC50
[36] = Human tumor cell line growth assay (SRB); details: human, OVCAR-3 cells (ovarian), OVCAR-3, 48 h, read-out: LC50
[37] = Human tumor cell line growth assay (SRB); details: human, OVCAR-4 cells (ovarian), OVCAR-4, 48 h, read-out: LC50
[38] = read-out: LC50 (the source's name)

Cc1cc2nc3c4cc(O)ccc4n(CCN(C)C)c3nc2cc1C [JBD-139, 6-(2-(dimethylamino)ethyl)-2,3-dimethyl-6H-indolo [2,3-b]quinoxalin-9-ol]
GI50 [1]: 338 nM | CC50 [1]: > 100000 nM | CC50 at 48 h [2]: 19500 nM | GI50 [3]: 1340 nM | CC50 at 48 h [4]: > 100000 nM | GI50 [5]: 516 nM | GI50 [6]: 348 nM | CC50 at 48 h [7]: > 100000 nM | GI50 [8]: 379 nM | LC50 (50% lethal concentration) at 48 h [9]: > 100000 nM | GI50 [10]: 822 nM | CC50 at 48 h [11]: > 100000 nM | GI50 [12]: 756 nM | GI50 [13]: 422 nM | GI50 [14]: 356 nM | GI50 [15]: 623 nM | CC50 at 48 h [16]: 5150 nM | GI50 [17]: 378 nM | GI50 [18]: 597 nM | GI50 [19]: 479 nM | GI50 [20]: 970 nM | CC50 at 48 h [21]: > 100000 nM | GI50 [22]: 867 nM | GI50 [23]: 412 nM | CC50 [23, 38]: > 100000 nM | GI50 [24]: 1160 nM | CC50 [24]: > 100000 nM | GI50 [25]: 307 nM | GI50 [26]: 1390 nM | CC50 [26]: 4180 nM | GI50 [27]: 491 nM | GI50 [28]: 598 nM | CC50 [28]: > 100000 nM | GI50 [29]: 1400 nM | CC50 [29]: > 100000 nM | cytotoxicity, comparison in words [30]: cytotoxicity that is higher

COc1ccc2c(c1)c1nc3cc(C)c(C)cc3nc1n2CCN(C)C [JBA-094, 2-(9-methoxy-2,3-dimethyl-6H-indolo[2,3-b]quinoxalin-6-yl)-N,N-dimethylethanamine]
GI50 [1]: 444 nM | CC50 [1]: > 100000 nM | CC50 at 48 h [2]: 8200 nM | GI50 [3]: 1240 nM | CC50 at 48 h [4]: 6410 nM | GI50 [5]: 778 nM | CC50 at 48 h [31]: 4980 nM | GI50 [6]: 388 nM | CC50 at 48 h [7]: 5720 nM | GI50 [8]: 369 nM | LC50 (50% lethal concentration) at 48 h [9]: 8230 nM | GI50 [10]: 1330 nM | CC50 at 48 h [11]: 5130 nM | GI50 [12]: 1110 nM | CC50 at 48 h [32]: 5200 nM | GI50 [13]: 663 nM | CC50 at 48 h [33]: 6090 nM | GI50 [14]: 526 nM | CC50 at 48 h [34]: 5770 nM | GI50 [15]: 1110 nM | CC50 at 48 h [16]: 5890 nM | GI50 [17]: 1120 nM | CC50 at 48 h [35]: 7970 nM | GI50 [18]: 1500 nM | GI50 [19]: 898 nM | CC50 at 48 h [36]: 6130 nM | GI50 [20]: 1260 nM | CC50 at 48 h [37]: 5560 nM | CC50 at 48 h [21]: 5280 nM | GI50 [22]: 1120 nM | GI50 [23]: 531 nM | GI50 [24]: 1500 nM | CC50 [24]: 7170 nM | GI50 [25]: 358 nM | CC50 [25, 38]: 3960 nM | GI50 [26]: 273 nM | CC50 [26]: 4930 nM | GI50 [27]: 1120 nM | CC50 [27, 38]: 5840 nM | GI50 [28]: 1010 nM | CC50 [28]: 5320 nM | GI50 [29]: 1930 nM | CC50 [29]: 78700 nM

Source: patent publication US20230312578A1, “6H-INDOLO[2,3-B]QUINOXALINE DERIVATIVES USEFUL IN THERAPY” (Vironova Medical AB, priority 2020, published 2023)
